PMC9504244, “Lysophosphatidylinositol Induced Morphological Changes and Stress Fiber Formation through the GPR55-RhoA-ROCK Pathway” (International Journal of Molecular Sciences, 2022)

Biological target: GPR55 (Homo sapiens, UniProt Q9Y2T6)
Assay: cell rounding, dose response, GPR55-expressing vs empty-vector HEK293 cells
Assay type: cell-based

Sequence of GPR55 (Q9Y2T6 whole entry): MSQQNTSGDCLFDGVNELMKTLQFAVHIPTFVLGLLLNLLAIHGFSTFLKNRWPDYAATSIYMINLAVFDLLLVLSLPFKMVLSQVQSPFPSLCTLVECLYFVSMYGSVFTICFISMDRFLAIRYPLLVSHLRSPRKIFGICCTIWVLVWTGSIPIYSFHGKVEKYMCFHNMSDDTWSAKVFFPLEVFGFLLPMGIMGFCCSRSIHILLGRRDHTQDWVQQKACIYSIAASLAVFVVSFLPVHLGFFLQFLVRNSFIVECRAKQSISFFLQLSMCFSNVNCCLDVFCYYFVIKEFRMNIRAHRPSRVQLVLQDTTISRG

In the case of `Cc1c(C(=O)NN2CCCCC2)nn(-c2ccc(Cl)cc2Cl)c1-c1ccc(Cl)cc1` [SR141716A], the “cell rounding, dose response, GPR55-expressing vs empty-vector HEK293 cells” value is reported as “cell rounding induced by AM251 and SR141716A was not observed in empty vector-transfected cells”.
